Target: human factor Xa (Homo sapiens, UniProt P00742)
Test: Factor Xa assay (chromogenic, substrate S-2765);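 also: purified enzyme preincubated with inhibitor for 10 min before substrate addition, final reaction volume 100 µl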
Type: biochemical
Conditions: read-out: Ki(FXa)

Sequence of human factor Xa (P00742 235-488 limits assumed): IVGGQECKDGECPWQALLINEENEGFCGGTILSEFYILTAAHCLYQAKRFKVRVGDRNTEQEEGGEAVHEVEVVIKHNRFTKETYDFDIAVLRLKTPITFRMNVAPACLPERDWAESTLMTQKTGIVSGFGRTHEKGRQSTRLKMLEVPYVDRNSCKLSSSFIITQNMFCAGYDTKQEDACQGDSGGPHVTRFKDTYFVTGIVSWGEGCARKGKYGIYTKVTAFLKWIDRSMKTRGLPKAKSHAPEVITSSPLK
Sequence of human factor Xa (P00742 41-179 partner limits assumed): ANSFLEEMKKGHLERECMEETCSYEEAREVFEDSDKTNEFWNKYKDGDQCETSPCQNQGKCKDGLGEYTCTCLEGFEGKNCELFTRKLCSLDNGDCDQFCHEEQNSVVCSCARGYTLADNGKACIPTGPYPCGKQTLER

| Ki | Compound |
| --- | --- |
| 88 nM | CCOC(=O)CN(C(=O)c1cc2cc(Cl)cc(Cl)c2n1Cc1cc(-c2ccc(Cl)s2)on1)C1CCN(C(C)C)CC1 [Example 227, [{5,7-Dichloro-1-[5-(5-chloro-thiophen-2-yl)-isoxazol-3-ylmethyl]-1H-indole-2-carbonyl}-(1-isopropyl-piperidin-4-yl)-amino]-acetic acid ethyl ester] |
| 12 nM | Cc1ccc(C)c2c1cc(C(=O)N(CC(=O)O)C1CCN(C(C)C)CC1)n2Cc1cc(-c2ccc(Cl)s2)on1 [Example 230, [{1-[5-(5-Chloro-thiophen-2-yl)-isoxazol-3-ylmethyl]-4,7-dimethyl-1H-indole-2-carbonyl}-(1-isopropyl-piperidin-4-yl)-amino]-acetic acid] |
| 20 nM | COc1ccc(OC)c2c1cc(C(=O)N(CC(=O)O)C1CCN(C(C)C)CC1)n2Cc1cc(-c2ccc(Cl)s2)on1 [Example 231, [{1-[5-(5-Chloro-thiophen-2-yl)-isoxazol-3-ylmethyl]-4,7-dimethoxy-1H-indole-2-carbonyl}-(1-isopropyl-piperidin-4-yl)-amino]-acetic acid] |
| 56 nM | CC(C)N1CCC(N(CC(=O)O)C(=O)c2cc3c(Cl)cccc3n2Cc2cc(-c3ccc(Cl)s3)on2)CC1 [Example 234, [{4-Chloro-1-[5-(5-chloro-thiophen-2-yl)-isoxazol-3-ylmethyl]-1H-indole-2-carbonyl}-(1-isopropyl-piperidin-4-yl)-amino]-acetic acid] |
| 42 nM | CC(C)OC(=O)c1ccc2c(c1)cc(C(=O)NC1CCN(C(C)C)CC1)n2Cc1cc(-c2ccc(Cl)s2)on1 [Example 235, 1-[5-(5-Chloro-thiophen-2-yl)-isoxazol-3-ylmethyl]-2-(1-isopropyl-piperidin-4-ylcarbamoyl)-1H-indole-5-carboxylic acid isopropyl ester] |
| 10 nM | CC(C)N1CCC(NC(=O)c2cc3cc(C(=O)O)ccc3n2Cc2cc(-c3ccc(Cl)s3)on2)CC1 [Example 236, 1-[5-(5-Chloro-thiophen-2-yl)-isoxazol-3-ylmethyl]-2-(1-isopropyl-piperidin-4-ylcarbamoyl)-1H-indole-5-carboxylic acid] |
| 3 nM | CC(C)N1CCC(NC(=O)c2cc3cc(CO)ccc3n2Cc2cc(-c3ccc(Cl)s3)on2)CC1 [Example 237, 1-[5-(5-Chloro-thiophen-2-yl)-isoxazol-3-ylmethyl]-5-hydroxymethyl-1H-indole-2-carboxylic acid (1-isopropyl-piperidin-4-yl)-amide] |
| 5 nM | COC(=O)c1ccc2c(c1)cc(C(=O)NC1CCN(C(C)C)CC1)n2Cc1cc(-c2ccc(Cl)s2)on1 [Example 239, 1-[5-(5-Chloro-thiophen-2-yl)-isoxazol-3-ylmethyl]-2-(1-isopropyl-piperidin-4-ylcarbamoyl)-1H-indole-5-carboxylic acid methyl ester] |
| 35 nM | CC(C)N1CCC(NC(=O)c2cc3cc(C(=O)OCOC(=O)C(C)(C)C)ccc3n2Cc2cc(-c3ccc(Cl)s3)on2)CC1 [Example 240, 1-[5-(5-Chloro-thiophen-2-yl)-isoxazol-3-ylmethyl]-2-(1-isopropyl-piperidin-4-ylcarbamoyl)-1H-indole-5-carboxylic acid 2,2-dimethyl-propionyloxymethyl ester] |
| 4 nM | CC(C)N1CCC(NC(=O)c2cc3cc(C(=O)O)ccc3n2Cc2nnc(-c3ccc(Cl)s3)s2)CC1 [Example 242, 1-[5-(5-Chloro-thiophen-2-yl)-[1,3,4]thiadiazol-2-ylmethyl]-2-(1-isopropyl-piperidin-4-ylcarbamoyl)-1H-indole-5-carboxylic acid] |

The remaining lines, values behind:

| Compound | Ki |
| --- | --- |
| CCOC(=O)CN(C(=O)c1cc2c(C)ccc(C)c2n1Cc1cc(-c2ccc(Cl)s2)on1)C1CCN(C(C)C)CC1 [Example 224, [{1-[5-(5-Chloro-thiophen-2-yl)-isoxazol-3-ylmethyl]-4,7-dimethyl-1H-indole-2-carbonyl}-(1-isopropyl-piperidin-4-yl)-amino]-acetic acid ethyl ester] | 21 nM |
| CCOC(=O)CN(C(=O)c1cc2c(OC)ccc(OC)c2n1Cc1cc(-c2ccc(Cl)s2)on1)C1CCN(C(C)C)CC1 [Example 225, [{1-[5-(5-Chloro-thiophen-2-yl)-isoxazol-3-ylmethyl]-4,7-dimethoxy-1H-indole-2-carbonyl}-(1-isopropyl-piperidin-4-yl)-amino]-acetic acid ethyl ester] | 26 nM |
| CCOC(=O)CN(C(=O)c1cc2c(Cl)ccc(Cl)c2n1Cc1cc(-c2ccc(Cl)s2)on1)C1CCN(C(C)C)CC1 [Example 226, [{4,7-Dichloro-1-[5-(5-chloro-thiophen-2-yl)-isoxazol-3-ylmethyl]-1H-indole-2-carbonyl}-(1-isopropyl-piperidin-4-yl)-amino]-acetic acid ethyl ester] | 83 nM |
| CCOC(=O)CN(C(=O)c1cc2c(Cl)cccc2n1Cc1cc(-c2ccc(Cl)s2)on1)C1CCN(C(C)C)CC1 [Example 228, [{4-Chloro-1-[5-(5-chloro-thiophen-2-yl)-isoxazol-3-ylmethyl]-1H-indole-2-carbonyl}-(1-isopropyl-piperidin-4-yl)-amino]-acetic acid ethyl ester] | 51 nM |
| CC(C)N1CCC(N(CC(=O)O)C(=O)c2cc3c(C(F)(F)F)cccc3n2Cc2cc(-c3ccc(Cl)s3)on2)CC1 [Example 229, [{1-[5-(5-Chloro-thiophen-2-yl)-isoxazol-3-ylmethyl]-4-trifluoromethyl-1H-indole-2-carbonyl}-(1-isopropyl-piperidin-4-yl)-amino]-acetic acid] | 172 nM |
| CC(C)N1CCC(N(CC(=O)O)C(=O)c2cc3c(Cl)ccc(Cl)c3n2Cc2cc(-c3ccc(Cl)s3)on2)CC1 [Example 232, [{4,7-Dichloro-1-[5-(5-chloro-thiophen-2-yl)-isoxazol-3-ylmethyl]-1H-indole-2-carbonyl}-(1-isopropyl-piperidin-4-yl)-amino]-acetic acid] | 55 nM |
| CC(C)N1CCC(N(CC(=O)O)C(=O)c2cc3cc(Cl)cc(Cl)c3n2Cc2cc(-c3ccc(Cl)s3)on2)CC1 [Example 233, [{5,7-Dichloro-1-[5-(5-chloro-thiophen-2-yl)-isoxazol-3-ylmethyl]-1H-indole-2-carbonyl}-(1-isopropyl-piperidin-4-yl)-amino]-acetic acid] | 74 nM |
| CCOC(=O)c1ccc2c(c1)cc(C(=O)NC1CCN(C(C)C)CC1)n2Cc1cc(-c2ccc(Cl)s2)on1 [Example 238, 1-[5-(5-Chloro-thiophen-2-yl)-isoxazol-3-ylmethyl]-2-(1-isopropyl-piperidin-4-ylcarbamoyl)-1H-indole-5-carboxylic acid ethyl ester] | 11 nM |
| CC(C)OC(=O)c1ccc2c(c1)cc(C(=O)NC1CCN(C(C)C)CC1)n2CC(=O)Nc1ccc(Cl)cc1 [Example 243, 1-[(4-Chloro-phenylcarbamoyl)-methyl]-2-(1-isopropyl-piperidin-4-ylcarbamoyl)-1H-indole-5-carboxylic acid isopropyl ester] | 10 nM |
| CC(C)N1CCC(NC(=O)c2cc3cc(C(=O)O)ccc3n2CC(=O)Nc2ccc(Cl)cc2)CC1 [Example 244, 1-[(4-Chloro-phenylcarbamoyl)-methyl]-2-(1-isopropyl-piperidin-4-ylcarbamoyl)-1H-indole-5-carboxylic acid] | 4 nM |
